Source: US10894807B2 (Siemens Medical Solutions USA, Inc., priority 2011, dated 2021)
Where two headings read alike, the source gives them in different places.

Target: human PSMA (Homo sapiens (Human), UniProt Q04609)
Assay: Enzymatic assay for in vitro evaluation of PSMA inhibitors (fluorescent assay of PSMA activity, NAAG substrate, OPA detection of glutamate)
Assay type: biochemical

Chain of human PSMA (Q04609 whole entry): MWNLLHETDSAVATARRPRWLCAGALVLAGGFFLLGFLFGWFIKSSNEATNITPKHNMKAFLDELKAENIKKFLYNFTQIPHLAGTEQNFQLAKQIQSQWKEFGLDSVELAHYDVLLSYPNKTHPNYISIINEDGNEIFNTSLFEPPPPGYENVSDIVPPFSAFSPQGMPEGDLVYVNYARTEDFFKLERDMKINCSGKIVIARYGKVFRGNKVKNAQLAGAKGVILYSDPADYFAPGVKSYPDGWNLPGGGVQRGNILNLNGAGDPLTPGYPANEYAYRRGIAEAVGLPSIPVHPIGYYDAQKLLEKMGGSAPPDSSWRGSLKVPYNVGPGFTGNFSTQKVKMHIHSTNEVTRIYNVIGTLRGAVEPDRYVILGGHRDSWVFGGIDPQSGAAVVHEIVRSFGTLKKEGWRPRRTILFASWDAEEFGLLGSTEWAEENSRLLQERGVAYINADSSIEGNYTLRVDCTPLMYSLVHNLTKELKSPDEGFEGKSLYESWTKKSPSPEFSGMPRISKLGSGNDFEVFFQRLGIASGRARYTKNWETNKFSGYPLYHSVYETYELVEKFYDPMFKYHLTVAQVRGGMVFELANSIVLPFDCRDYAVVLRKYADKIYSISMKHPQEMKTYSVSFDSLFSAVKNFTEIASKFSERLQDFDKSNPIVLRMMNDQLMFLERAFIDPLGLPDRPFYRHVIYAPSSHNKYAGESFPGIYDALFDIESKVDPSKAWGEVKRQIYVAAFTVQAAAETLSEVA

| SMILES | Ki [nM] | PSMA Blkg % (10 μM) (compound at 10 μM) [%] | further results |
| --- | --- | --- | --- |
| O=C(O)CCC(CP(=O)(O)OC[C@@H]1CCCN1C(=O)CCCc1ccc(-n2cc(CCCF)nn2)cc1)C(=O)O (stereo partly drawn) [P207, 2-(((((S)-1-(4-(4-(4-(3-Fluoropropyl)-1H-1,2,3-triazol-1-yl)phenyl)butanoyl)pyrrolidin-2-yl)methoxy)(hydroxy)phosphoryl)methyl)pentanedioic Acid] | 18.8 |  | PSMA Blkg % (10 μM): 96% |
| O=C(O)CC[C@H](NC(=S)NC(CCCCNC(=O)OCc1ccccc1)C(=O)O)C(=O)O (stereo partly drawn) [P070, (13S)-3-Oxo-1-phenyl-11-thioxo-2-oxa-4,10,12-triazapentadecane-9,13,15-tricarboxylic Acid] | 59 | 94 |  |
| O=C(O)CC[C@H](NC(=O)CN(O)C(=O)CCCNC(=O)Cn1cc(CCCF)nn1)C(=O)O [P142, (S)-2-(2-(4-(2-(4-(3-Fluoropropyl)-1H-1,2,3-triazol-1-yl)acetamido)-N-hydroxybutanamido)acetamido)pentanedioic Acid] |  | 5 |  |
| O=C(O)CC[C@@H](C(=O)O)N1C(=O)CC(=O)N([C@@H](CCCCNC(=O)OCc2ccccc2)C(=O)O)C1=O [P055, (S)-2-(3-((S)-5-(Benzyloxycarbonylamino)-1-carboxypentyl)-2,4,6-trioxotetrahydropyrimidin-1(2H)-yl)pentanedioic Acid] | 344 | 94 |  |
| CN(C(=O)N[C@@H](CCC(=O)O)C(=O)O)[C@@H](CCCCNC(=O)NCc1ccccc1)C(=O)O [P175, (9S,13S)-10-Methyl-3,11-dioxo-1-phenyl-2,4,10,12-tetraazapentadecane-9,13,15-tricarboxylic Acid] |  | 18 |  |
| O=C(O)CC[C@H](NC(=O)N(CC(=O)O)NC(=O)OCc1ccccc1)C(=O)O [P021, (S)-2-(2-(Benzyloxycarbonyl)-1-(carboxymethyl)hydrazinecarboxamido) pentanedioic Acid] |  | 0 |  |
| O=C(O)CC[C@H](NC(=O)N(O)[C@@H](CCCCNC(=O)c1ccc(NC(=O)c2ccc(F)nc2)cc1)C(=O)O)C(=O)O [P164, (S)-2-(3-((S)-1-Carboxy-5-(4-(6-fluoronicotinamido)benzamido)pentyl)-3-hydroxyureido)pentanedioic Acid] | > 407 | 80 |  |
| CCC1C(=O)N([C@@H](CCCCNC(=O)OCc2ccccc2)C(=O)O)C(=O)N([C@@H](CCC(=O)O)C(=O)O)C1=O (stereo partly drawn) [P078, (2S)-2-(3-((S)-5-(Benzyloxycarbonylamino)-1-carboxypentyl)-5-ethyl-2,4,6-trioxotetrahydropyrimidin-1(2H)-yl)pentanedioic Acid] | > 312 |  |  |
| O=C(O)CC[C@H](NC(=O)C[C@@H](NC(=O)CCCCCNC(=O)c1cc(C(=O)NCCCCCC(=O)N[C@H](CC(=O)N[C@@H](CCC(=O)O)C(=O)O)C(=O)O)cc([N+](=O)[O-])c1)C(=O)O)C(=O)O [P296, (2S,2′S)-2,2′-(((3R,3′R)-3,3′-((6,6′-((5-nitroisophthaloyl)bis(azanediyl))bis(hexanoyl))-bis(azanediyl))bis(3-carboxypropanoyl))bis(azanediyl))dipentanedioic Acid] |  |  | PSMA Blkg % (1.0 μM): 72% |
| COc1ccc(CCCC(=O)N(O)CC(=O)N[C@@H](CCC(=O)O)C(=O)O)cc1 [P132, (S)-2-(2-(N-Hydroxy-4-(4-methoxyphenyl)butanamido)acetamido)pentanedioic Acid] |  | 17 |  |
| Cc1ccc(-c2cn(CC(=O)N[C@@H](CC(=O)N[C@@H](CCC(=O)O)C(=O)O)C(=O)O)nn2)cc1 [P016, (S)-2-((S)-3-Carboxy-3-(2-(4-(p-tolyl)-1H-1,2,3-triazol-1-yl)acetamido)-propanamido)pentanedioic Acid] |  | 12 |  |
| CCC1(CC)C(=O)N([C@@H](CCCCNC(=O)OCc2ccc([N+](=O)[O-])cc2)C(=O)O)C(=O)N([C@@H](CCC(=O)O)C(=O)O)C1=O [P118, (S)-2-(3-((S)-1-Carboxy-5-((4-nitrobenzyloxy)carbonylamino)pentyl)-5,5-diethyl-2,4,6-trioxotetrahydropyrimidin-1(2H)-yl)pentanedioic Acid] |  | 13 |  |
| CN(C(=O)[C@H](CC(=O)O)NC(=O)COCCNC(=O)c1ccc(F)cc1)[C@@H](CCC(=O)O)C(=O)O [P174, (S)-2-((S)-3-Carboxy-2-(2-(2-(4-fluorobenzamido)ethoxy)acetamido)-N-methylpropanamido)pentanedioic Acid] |  | 1 |  |
| CN(C(=O)N[C@@H](CCC(=O)O)C(=O)O)[C@@H](CCCCNC(=O)CCCn1cc(CCCF)nn1)C(=O)O [P046, (S)-2-(3-((S)-1-Carboxy-5-(4-(4-(3-fluoropropyl)-1H-1,2,3-triazol-1-yl)-butanamido)pentyl)-3-methylureido)pentanedioic Acid] | 328 | 80 |  |
| O=C(O)CC[C@H](NC(=O)N[C@@H](CCCCNc1nc(-c2cc3ccccc3s2)cs1)C(=O)O)C(=O)O [P234, (S)-2-(3-((S)-5-(4-(Benzo[b]thiophen-2-yl)thiazol-2-ylamino)-1-carboxypentyl)ureido) pentanedioic Acid] |  |  | PSMA Blkg % (1.0 μM): 86% |
| O=C(O)CC[C@H](NC(=O)N[C@@H](Cc1ccc(NC(=O)c2cc(C(=O)Nc3ccc(C[C@H](NC(=O)N[C@@H](CCC(=O)O)C(=O)O)C(=O)O)cc3)cc(-n3cc(CCCF)nn3)c2)cc1)C(=O)O)C(=O)O [P238, (2S,2′S)-2,2′-(((((1S,1′S)-(((5-(4-(3-Fluoropropyl)-1H-1,2,3-triazol-1-yl)isophthaloyl)bis(azanediyl))bis(4,1-phenylene))bis(1-carboxyethane-2,1-diyl))bis(azanediyl))bis(carbonyl))bis(azanediyl))dipentanedioic Acid] | < 0.3 |  | PSMA Blkg % (1.0 μM): 100% |
| O=C(O)CC[C@H](NC(=O)N(CC(=O)O)[C@@H](CCCCNC(=O)OCc1ccccc1)C(=O)O)C(=O)O [P008, (9S,13S)-10-(Carboxymethyl)-3,1-dioxo-1-phenyl-2-oxa-4,10,12-triazapentadecane-9,13,15-tricarboxylic Acid] |  | 21 |  |
| CC(=O)N(CCCCN1C(=O)c2ccccc2C1=O)NC(=O)N[C@@H](CCC(=O)O)C(=O)O [P066, (S)-2-(2-Acetyl-2-(4-(1,3-dioxoisoindolin-2-yl)butyl)hydrazinecarboxamido)-pentanedioic Acid] |  | 12 |  |
| CCC1(CC)C(=O)N([C@@H](CCCCNC/C=C/c2ccc(-n3cc(CCCF)nn3)cc2)C(=O)O)C(=O)N([C@@H](CCC(=O)O)C(=O)O)C1=O [P114, (S)-2-(3-((S)-1-Carboxy-5-((E)-3-(4-(4-(3-fluoropropyl)-1H-1,2,3-triazol-1-yl)phenyl)allylamino)pentyl)-5,5-diethyl-2,4,6-trioxotetrahydropyrimidin-1(2H)-yl)pentanedioic Acid] |  | 8 |  |
| O=C(O)CC[C@@H](C(=O)O)N1C(=O)CC(=O)N([C@@H](CCCCNC(=O)NCc2ccccc2)C(=O)O)C1=O [P129, (S)-2-(3-((S)-5-(3-Benzylureido)-1-carboxypentyl)-2,4,6-trioxotetrahydropyrimidin-1(2H)-yl)pentanedioic Acid] |  | 10 |  |
| CN(C(=O)N[C@@H](CCC(=O)O)C(=O)O)[C@@H](CCCCn1cc(COCCOCCNc2ccc([N+](=O)[O-])cc2[N+](=O)[O-])nn1)C(=O)O [P172, (S)-2-(3-((S)-1-Carboxy-5-(4-((2-(2-(2,4-dinitrophenylamino)ethoxy)ethoxy)methyl)-1H-1,2,3-triazol-1-yl)pentyl)-3-methylureido)pentanedioic Acid] | 313 |  |  |
| CN(C(=O)N[C@@H](CCC(=O)O)C(=O)O)[C@@H](CCCCn1cc(CCCF)nn1)C(=O)O [P173, (S)-2-(3-((S)-1-Carboxy-5-(4-(3-fluoropropyl)-1H-1,2,3-triazol-1-yl)pentyl)-3-methylureido)pentanedioic Acid] |  | 31 |  |
| O=C(O)CC[C@H](NC(=O)N[C@@H](CCCCn1cc(CCCF)nn1)C(=O)O)C(=O)O [P188, (S)-2-(3-((S)-1-Carboxy-5-(4-(3-fluoropropyl)-1H-1,2,3-triazol-1-yl)pentyl)ureido)-pentanedioic Acid] | 6.6 | 99 |  |
| CC(C)(C)OC(=O)NCCCCN(CC(=O)O)CC(=O)N[C@@H](CCC(=O)O)C(=O)O [P049, (S)-2-(2-((4-(tert-Butoxycarbonylamino)butyl)(carboxymethyl)amino)acetamido) pentanedioic Acid] |  | 0 |  |
| O=C(O)CC[C@H](NC(=O)N[C@@H](CCCCNC(=O)[C@H]1O[C@@H](CNC(=O)CCc2ccc(-n3cc(CCCF)nn3)cc2)[C@H](O)[C@@H](O)[C@H]1O)C(=O)O)C(=O)O [P194, (S)-2-(3-((S)-1-Carboxy-5-((2S,3R,4R,5R,6S)-6-((3-(4-(4-(3-fluoropropyl)-1H-1,2,3-triazol-1-yl)phenyl)propanamido)methyl)-3,4,5-trihydroxytetrahydro-2H-pyran-2-carboxamido)pentyl)ureido)pentanedioic Acid] | 69 |  | PSMA Blkg % (10 μM): 96% |
| CC(=O)Oc1ccc2c(c1)Oc1cc(OC(C)=O)ccc1C21OC(=O)c2ccc(C(=O)NCCCC[C@H](NC(=O)N[C@@H](CCC(=O)O)C(=O)O)C(=O)O)cc21 [P185, (S)-2-(3-((S)-1-Carboxy-5-(3′,6′-diacetoxy-3-oxo-3H-spiro[isobenzofuran-1,9′-xanthen]-6-ylcarboxamido)pentyl)ureido)pentanedioic Acid] |  |  | PSMA Blkg % (10 μM): 99% |
| O=C(O)CC[C@@H](C(=O)O)N1C(=O)CC(=O)N([C@@H](CCCCNC(=O)CCCCn2cc(CCCF)nn2)C(=O)O)C1=O [P076, (S)-2-(3-((S)-1-Carboxy-5-(5-(4-(3-fluoropropyl)-1H-1,2,3-triazol-1-yl)pentanamido)pentyl)-2,4,6-trioxotetrahydropyrimidin-1(2H)-yl)pentanedioic Acid] |  | 14 |  |
